Reference: patent US9359406B2, “Vaccine for a therapeutic or a prophylactic treatment of myasthenia gravis” (CuraVac Inc., priority 2006, dated 2016)
No end group written: not given here.

Experiments:
[1] = system: experimental autoimmune myasthenia gravis (EAMG); assay: Example 3: EAMG induced with purified Torpedo AChR in Lewis rats vaccinated with T-peptide, B-peptide or both; type: in vivo; settings: immunized three times
From the text: To evaluate whether vaccination with T-peptide together with B-peptide with an hydrocarbon group causes a different effect on experimental autoimmune myasthenia gravis (EAMG) than either B with an hydrocarbon group and T-peptide alone and separately, Lewis rats were immunized three times with keyhole limpet hemacyanin (KLH) or T-peptide or B-peptide with an hydrocarbon group coupled to KLH either alone or in combination. EAMG was then induced with purified Torpedo AChR and disease was monitored.

[2] = system: pathogenic antibodies; assay: Pathogenic antibodies level in rats given B-peptide and T-peptide alone or together; type: in vivo; settings: result in words
Experimental: As previously described, the peptide RhCA 67-16 also called herein B-peptide and the peptide RhCA 611-001 also referred herein T-peptide were tested alone on rats.

[3] = system: Experimental Autoimmune Myasthenia Gravis (EAMG); settings: cited from earlier work

Row | Substance | Average Severity [1] | EAMG Incidence (%) [1] [%] | Mortality (%) [1] [%] | Severity 0, number of rats [1] | Severity 1, number of rats [1] | Severity 2, number of rats [1] | Severity 4, number of rats [1] | pathogenic antibodies level [2] | incidence of the disease in vaccinated animals ([3]; peptide conjugated to KLH, controls 90%) [%] | clinical severity scoring in animals with disease, average ([3]; peptide conjugated to KLH, positive controls 3.5) | clinical outcome after immunization ([3]; Lewis rats, result in words)
1 | NH2-Phe-Asn-Ser-Thr-Ile-Ile-Gly-Trp-Ile-Pro-Ala-Lys-Pro-His-Ile-Asn (H-FNSTIIGWIPAKPHIN; also: Trp8 carries at least one 2,4,6-trimethoxybenzyl group) [RhCA 67-16] | 1.33 ± 0.55 | 55.56 | 22.22 | 4 | 2 | 1 | 2 | significant decrease | 25 | 1.0 | –
2 | NH2-Tyr-Phe-Ser-Arg-Ile-Ile-Gln-Lys-Gln-Phe-Gly-His-Val-Asn-Asn-Gly-Lys (H-YFSRIIQKQFGHVNNGK) [RhCA 611-001, peptide complementary to residues 100-116 of the α-chain of the AChR] | 1.22 ± 0.55 | 55.56 | 22.22 | 4 | 3 | – | 2 | significant decrease | – | – | marked clinical improvement, lowered mortality and preservation of AChR levels on muscles
